Source: patent publication US7160685B2, “Diagnostic reagents for human cytomegalovirus and methods of use” (priority 1996, dated 2007)
Like-named read-outs stand apart in the source and are kept apart here.

Legend:
HLA A*0217 = HLA A*0217 (Homo sapiens, UniProt P04439, D140Y/D185E/D98H/E176V/E277Q/G131W/G231S/I119L/I121M/I166T/I218V/L300P/L318F/N151K/N90K/P208A/P217A/Q86G/Q94H/R138H/R169H/T345S/Y123F)
Protocol: (§1) Twelve cell lines were subjected to chromium release assays in which they were pulsed with the 495 peptide (pp65495-503) nonamer, loaded with chromium-51, and incubated with two different HLA A*0201 restricted CTL which recognize the 495 peptide and HCMV. The specific cytotoxicity was calculated and is shown in tabular form below for the 1 μM and 1 nM concentrations of the 495 peptide.

HLA A*0209 = HLA A*0209 (Homo sapiens, UniProt P04439, A260E/D140Y/D185E/D98H/E176V/E277Q/G131W/G231S/I119V/I121R/I166T/I218V/L300P/L318F/N151K/N90K/P208A/P217A/Q86G/Q94H/R138H/R169H/T345S)
Protocol: as §1

HLA A*0205 = HLA A*0205 (Homo sapiens, UniProt P04439, D140Y/D185E/D98H/E176V/E277Q/F33Y/G131W/G231S/I119L/I121R/I166T/I218V/L180W/L300P/L318F/N151K/N90K/P208A/P217A/Q67R/Q86G/Q94H/R138H/R169H/T345S)
Protocol: as §1

HLA A*0211 = HLA A*0211 (Homo sapiens, UniProt P04439, D140Y/D185E/E176V/E277Q/G131W/G231S/I119V/I121R/I166T/I218V/L300P/L318F/N151K/N90K/P208A/P217A/Q86G/Q94H/R138H/R169H/T345S/T97I)
Protocol: as §1

HLA A*0210 = HLA A*0210 (Homo sapiens, UniProt P04439, D140Y/D185E/D98H/E176V/E277Q/F33Y/G231S/I119V/I121R/I166T/I218V/L300P/L318F/N151K/N90K/P208A/P217A/Q86G/Q94H/R138H/R169H/T345S/Y123F)
Protocol: as §1

495 peptide targets = settings: after 14 weeks; 495 peptide + PADRE + IFA
HLA A*0202 = HLA A*0202 (Homo sapiens, UniProt P04439, D140Y/D185E/D98H/E176V/E277Q/G131W/G231S/I119L/I121R/I166T/I218V/L180W/L300P/L318F/N151K/N90K/P208A/P217A/Q67R/Q86G/Q94H/R138H/R169H/T345S)
Protocol: as §1

HLA A*0206 = HLA A*0206 (Homo sapiens, UniProt P04439, D140Y/D185E/D98H/E176V/E277Q/F33Y/G131W/G231S/I119V/I121R/I166T/I218V/L300P/L318F/N151K/N90K/P208A/P217A/Q86G/Q94H/R138H/R169H/T345S)
Protocol: as §1

HLA A*0207 = HLA A*0207 (Homo sapiens, UniProt P04439, D140Y/D185E/D98H/E176V/E277Q/G131W/G231S/I119V/I121R/I166T/I218V/L300P/L318F/N151K/N90K/P208A/P217A/Q86G/Q94H/R138H/R169H/T345S/Y123C)
Protocol: as §1

HLA A*0204 = HLA A*0204 (Homo sapiens, UniProt P04439, D140Y/D185E/D98H/E176V/E277Q/G131W/G231S/I119V/I121M/I166T/I218V/L300P/L318F/N151K/N90K/P208A/P217A/Q86G/Q94H/R138H/R169H/T345S)
Protocol: as §1

## CSCC[C@H](NC(=O)[C@@H]1CCCN1C(=O)[C@@H](NC(=O)[C@H](CC(C)C)NC(=O)[C@@H](N)CC(N)=O)C(C)C)C(=O)N[C@H](C(=O)N[C@@H](C)C(=O)N[C@H](C(=O)N[C@H](C(=O)O)C(C)C)[C@@H](C)O)C(C)C [SEQ ID NO:1]
HLA A*0217; A*0217, CTL 3-3F4, 1 nM
  specific cytotoxicity: − (cytotoxicity less than 15%)
HLA A*0217; A*0217, CTL 3-3F4, 1 μM
  specific cytotoxicity: + (cytotoxicity greater than 30%)
HLA A*0217; A*0217, CTL VB-57, 1 nM
  specific cytotoxicity: + (cytotoxicity greater than 30%)
HLA A*0217; A*0217, CTL VB-57, 1 μM
  specific cytotoxicity: + (cytotoxicity greater than 30%)
HLA A*0209; A*0209, CTL 3-3F4, 1 nM
  specific cytotoxicity: − (cytotoxicity less than 15%)
HLA A*0209; A*0209, CTL 3-3F4, 1 μM
  specific cytotoxicity: + (cytotoxicity greater than 30%)
HLA A*0209; A*0209, CTL VB-57, 1 nM
  specific cytotoxicity: − (cytotoxicity less than 15%)
HLA A*0209; A*0209, CTL VB-57, 1 μM
  specific cytotoxicity: + (cytotoxicity greater than 30%)
HLA A*0205; A*0205, CTL 3-3F4, 1 nM
  specific cytotoxicity: − (cytotoxicity less than 15%)
HLA A*0205; A*0205, CTL 3-3F4, 1 μM
  specific cytotoxicity: + (cytotoxicity greater than 30%)
HLA A*0205; A*0205, CTL VB-57, 1 nM
  specific cytotoxicity: + (cytotoxicity greater than 30%)
HLA A*0205; A*0205, CTL VB-57, 1 μM
  specific cytotoxicity: + (cytotoxicity greater than 30%)
HLA A*0211; A*0211, CTL 3-3F4, 1 nM
  specific cytotoxicity: − (cytotoxicity less than 15%)
HLA A*0211; A*0211, CTL 3-3F4, 1 μM
  specific cytotoxicity: + (cytotoxicity greater than 30%)
HLA A*0211; A*0211, CTL VB-57, 1 μM
  specific cytotoxicity: + (cytotoxicity greater than 30%)
HLA A*0210; A*0210, CTL 3-3F4, 1 nM
  specific cytotoxicity: + (cytotoxicity greater than 30%)
HLA A*0210; A*0210, CTL 3-3F4, 1 μM
  specific cytotoxicity: + (cytotoxicity greater than 30%)
HLA A*0210; A*0210, CTL VB-57, 1 nM
  specific cytotoxicity: + (cytotoxicity greater than 30%)
HLA A*0210; A*0210, CTL VB-57, 1 μM
  specific cytotoxicity: + (cytotoxicity greater than 30%)
495 peptide targets
  Percent specific cytotoxicity (cytotoxicity of 495 peptide targets—cytotoxicity of p53 targets): 40%
HLA A*0202; A*0202, CTL 3-3F4, 1 nM
  specific cytotoxicity: − (cytotoxicity less than 15%)
HLA A*0202; A*0202, CTL 3-3F4, 1 μM
  specific cytotoxicity: + (cytotoxicity greater than 30%)
HLA A*0202; A*0202, CTL VB-57, 1 nM
  specific cytotoxicity: − (cytotoxicity less than 15%)
HLA A*0202; A*0202, CTL VB-57, 1 μM
  specific cytotoxicity: + (cytotoxicity greater than 30%)
HLA A*0206; A*0206, CTL 3-3F4, 1 nM
  specific cytotoxicity: + (cytotoxicity greater than 30%)
HLA A*0206; A*0206, CTL 3-3F4, 1 μM
  specific cytotoxicity: + (cytotoxicity greater than 30%)
HLA A*0206; A*0206, CTL VB-57, 1 nM
  specific cytotoxicity: + (cytotoxicity greater than 30%)
HLA A*0206; A*0206, CTL VB-57, 1 μM
  specific cytotoxicity: + (cytotoxicity greater than 30%)
HLA A*0207; A*0207, CTL 3-3F4, 1 nM
  specific cytotoxicity: + (cytotoxicity greater than 30%)
HLA A*0207; A*0207, CTL 3-3F4, 1 μM
  specific cytotoxicity: + (cytotoxicity greater than 30%)
HLA A*0207; A*0207, CTL VB-57, 1 nM
  specific cytotoxicity: + (cytotoxicity greater than 30%)
HLA A*0207; A*0207, CTL VB-57, 1 μM
  specific cytotoxicity: + (cytotoxicity greater than 30%)
HLA A*0204; A*0204, CTL 3-3F4, 1 nM
  specific cytotoxicity: + (cytotoxicity greater than 30%)
HLA A*0204; A*0204, CTL 3-3F4, 1 μM
  specific cytotoxicity: + (cytotoxicity greater than 30%)
HLA A*0204; A*0204, CTL VB-57, 1 nM
  specific cytotoxicity: + (cytotoxicity greater than 30%)
HLA A*0204; A*0204, CTL VB-57, 1 μM
  specific cytotoxicity: + (cytotoxicity greater than 30%)
